# Measurements reported in patent US20150005281A1, “PYRIMIDINE-2,4-DIAMINE DERIVATIVES AS KINASE INHIBITORS” (Cellzome Limited, priority 2011, published 2015).
# Structures can show the parent of a compound that is named as a salt.
# Assays:
# Format in all cases: binding
# JAK3 = molecular target: T1, JAK3 (Homo sapiens, UniProt P52333); test: Kinobeads assay with immunodetection, JAK3; settings: for IC50: Kinobeads assay, mixed Molt4/Ramos lysate, read-out: Inhibition values (IC50) JAK3
# T1 construct: endogenous in cells; host or cells: Molt4 (ATCC CRL-1582) and Ramos (ATCC CRL-1596) cells; mixed lysate 1:2
# T1 sequence (P52333 1-1124): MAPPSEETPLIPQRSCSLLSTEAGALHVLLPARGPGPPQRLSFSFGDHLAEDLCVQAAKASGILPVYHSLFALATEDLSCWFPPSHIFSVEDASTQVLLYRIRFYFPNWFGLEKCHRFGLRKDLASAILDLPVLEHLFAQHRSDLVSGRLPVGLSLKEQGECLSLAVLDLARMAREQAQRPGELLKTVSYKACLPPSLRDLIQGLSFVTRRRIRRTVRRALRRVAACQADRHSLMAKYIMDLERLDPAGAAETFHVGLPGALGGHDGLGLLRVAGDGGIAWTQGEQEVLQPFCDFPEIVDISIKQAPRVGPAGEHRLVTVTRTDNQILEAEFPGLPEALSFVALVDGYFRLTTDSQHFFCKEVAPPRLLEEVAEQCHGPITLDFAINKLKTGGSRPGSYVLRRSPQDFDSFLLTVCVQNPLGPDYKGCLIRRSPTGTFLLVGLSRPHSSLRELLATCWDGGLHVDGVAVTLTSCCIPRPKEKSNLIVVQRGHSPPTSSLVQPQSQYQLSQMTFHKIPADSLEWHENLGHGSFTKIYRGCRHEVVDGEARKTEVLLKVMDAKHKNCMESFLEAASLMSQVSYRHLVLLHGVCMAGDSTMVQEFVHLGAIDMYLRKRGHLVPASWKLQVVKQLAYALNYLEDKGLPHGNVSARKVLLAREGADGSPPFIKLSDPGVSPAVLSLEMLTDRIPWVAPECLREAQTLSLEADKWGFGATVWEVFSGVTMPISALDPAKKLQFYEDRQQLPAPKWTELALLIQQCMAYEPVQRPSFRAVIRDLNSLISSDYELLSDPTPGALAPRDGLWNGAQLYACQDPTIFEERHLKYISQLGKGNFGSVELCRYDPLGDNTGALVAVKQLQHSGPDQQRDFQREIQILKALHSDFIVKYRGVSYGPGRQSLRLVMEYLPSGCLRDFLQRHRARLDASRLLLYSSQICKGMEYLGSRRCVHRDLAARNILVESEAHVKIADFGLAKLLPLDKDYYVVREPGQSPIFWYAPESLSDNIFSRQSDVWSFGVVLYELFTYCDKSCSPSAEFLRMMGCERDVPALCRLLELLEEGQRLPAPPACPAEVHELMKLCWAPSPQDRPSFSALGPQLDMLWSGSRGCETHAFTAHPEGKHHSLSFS
# Outline: (§1)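 Lysates of Molt4 and Ramos cells, combined 1:2 and diluted to 10 mg/mL in Tris pH 7.4 buffer with 0.8% NP40, are incubated for 3 h in the cold with compound and the affinity matrix. Beads are washed, eluted in SDS buffer, and kinases are quantified by infrared immunodetection to give IC50s.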
# TYK2 = molecular target: T2, TYK2 (Homo sapiens, UniProt P29597); test: Kinobeads assay with immunodetection, TYK2; settings: for IC50: Kinobeads assay, mixed Molt4/Ramos lysate, read-out: Inhibition values (IC50) Tyk2
# T2 construct: endogenous in cells; host or cells: Molt4 (ATCC CRL-1582) and Ramos (ATCC CRL-1596) cells; mixed lysate 1:2
# T2 sequence (P29597 whole entry): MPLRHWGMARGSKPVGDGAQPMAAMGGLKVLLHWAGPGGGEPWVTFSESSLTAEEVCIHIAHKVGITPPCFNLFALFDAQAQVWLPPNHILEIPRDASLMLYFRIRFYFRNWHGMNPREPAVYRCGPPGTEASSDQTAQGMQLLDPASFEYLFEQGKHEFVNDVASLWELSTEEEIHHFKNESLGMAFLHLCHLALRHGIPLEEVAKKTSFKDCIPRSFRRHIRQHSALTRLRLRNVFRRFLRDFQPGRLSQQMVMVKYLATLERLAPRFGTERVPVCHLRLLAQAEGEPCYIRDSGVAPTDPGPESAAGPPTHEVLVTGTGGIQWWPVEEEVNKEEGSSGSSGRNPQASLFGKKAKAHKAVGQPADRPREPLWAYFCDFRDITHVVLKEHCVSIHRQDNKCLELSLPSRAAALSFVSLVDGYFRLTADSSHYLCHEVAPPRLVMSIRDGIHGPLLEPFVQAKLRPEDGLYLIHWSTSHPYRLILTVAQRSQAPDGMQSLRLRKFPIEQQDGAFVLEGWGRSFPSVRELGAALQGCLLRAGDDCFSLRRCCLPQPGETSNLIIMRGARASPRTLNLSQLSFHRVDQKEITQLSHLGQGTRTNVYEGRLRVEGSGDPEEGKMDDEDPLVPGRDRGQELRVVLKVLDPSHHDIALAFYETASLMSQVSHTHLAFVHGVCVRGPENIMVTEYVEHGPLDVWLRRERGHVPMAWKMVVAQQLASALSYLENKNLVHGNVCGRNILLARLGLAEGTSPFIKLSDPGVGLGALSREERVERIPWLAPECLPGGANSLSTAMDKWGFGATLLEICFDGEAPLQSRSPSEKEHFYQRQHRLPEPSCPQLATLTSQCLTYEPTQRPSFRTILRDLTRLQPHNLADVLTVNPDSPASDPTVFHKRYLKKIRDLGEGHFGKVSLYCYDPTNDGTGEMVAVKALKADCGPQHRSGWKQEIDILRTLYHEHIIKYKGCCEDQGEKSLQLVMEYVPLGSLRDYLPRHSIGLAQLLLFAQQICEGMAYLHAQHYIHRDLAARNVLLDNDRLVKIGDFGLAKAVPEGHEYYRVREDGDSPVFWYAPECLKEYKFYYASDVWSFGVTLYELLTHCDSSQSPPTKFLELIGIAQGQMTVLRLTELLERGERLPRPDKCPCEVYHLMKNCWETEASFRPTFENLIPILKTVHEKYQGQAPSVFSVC
# Outline: as §1
# JAK1 = molecular target: T3, JAK1 (Homo sapiens, UniProt P23458); test: Kinobeads assay with immunodetection, JAK1; settings: for IC50: Kinobeads assay, mixed Molt4/Ramos lysate, read-out: Inhibition values (IC50) JAK1
# T3 construct: endogenous in cells; host or cells: Molt4 (ATCC CRL-1582) and Ramos (ATCC CRL-1596) cells; mixed lysate 1:2
# T3 sequence (P23458 whole entry): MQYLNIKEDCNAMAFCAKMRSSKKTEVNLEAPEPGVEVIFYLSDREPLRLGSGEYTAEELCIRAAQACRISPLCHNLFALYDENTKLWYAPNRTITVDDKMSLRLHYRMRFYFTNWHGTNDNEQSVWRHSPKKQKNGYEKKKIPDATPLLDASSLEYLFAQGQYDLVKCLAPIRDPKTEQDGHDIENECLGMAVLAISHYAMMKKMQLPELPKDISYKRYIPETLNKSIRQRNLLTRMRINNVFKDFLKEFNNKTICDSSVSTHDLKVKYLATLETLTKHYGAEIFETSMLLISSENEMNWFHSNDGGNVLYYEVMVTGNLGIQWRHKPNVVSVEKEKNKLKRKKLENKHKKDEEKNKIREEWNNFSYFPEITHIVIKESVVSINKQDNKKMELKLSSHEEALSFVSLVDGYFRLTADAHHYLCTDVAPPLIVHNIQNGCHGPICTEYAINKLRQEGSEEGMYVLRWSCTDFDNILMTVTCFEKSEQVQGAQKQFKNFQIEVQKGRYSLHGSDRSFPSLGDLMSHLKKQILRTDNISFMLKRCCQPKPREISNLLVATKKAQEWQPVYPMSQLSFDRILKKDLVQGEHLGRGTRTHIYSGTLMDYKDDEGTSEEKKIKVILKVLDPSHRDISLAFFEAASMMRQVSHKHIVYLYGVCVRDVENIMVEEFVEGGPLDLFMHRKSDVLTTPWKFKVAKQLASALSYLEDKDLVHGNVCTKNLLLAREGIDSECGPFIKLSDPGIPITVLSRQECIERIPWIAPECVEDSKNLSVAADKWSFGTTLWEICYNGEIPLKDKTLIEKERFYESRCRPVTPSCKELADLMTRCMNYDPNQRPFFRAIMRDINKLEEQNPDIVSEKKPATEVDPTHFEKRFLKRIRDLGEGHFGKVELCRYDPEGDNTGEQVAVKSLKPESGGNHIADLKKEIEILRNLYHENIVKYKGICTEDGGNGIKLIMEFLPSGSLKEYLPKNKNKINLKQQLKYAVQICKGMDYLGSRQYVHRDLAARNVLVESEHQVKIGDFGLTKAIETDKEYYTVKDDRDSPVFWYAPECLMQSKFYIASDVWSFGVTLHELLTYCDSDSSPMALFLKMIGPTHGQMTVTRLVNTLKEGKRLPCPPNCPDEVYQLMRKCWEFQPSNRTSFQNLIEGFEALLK
# Outline: as §1
# JAK2 = molecular target: T4, JAK2 (Homo sapiens, UniProt O60674); test: Kinobeads assay with immunodetection, JAK2; settings: mixed Molt4/Ramos lysate, read-out: Inhibition values (IC50) JAK2
# T4 construct: endogenous in cells; host or cells: Molt4 (ATCC CRL-1582) and Ramos (ATCC CRL-1596) cells; mixed lysate 1:2
# T4 sequence (O60674 whole entry): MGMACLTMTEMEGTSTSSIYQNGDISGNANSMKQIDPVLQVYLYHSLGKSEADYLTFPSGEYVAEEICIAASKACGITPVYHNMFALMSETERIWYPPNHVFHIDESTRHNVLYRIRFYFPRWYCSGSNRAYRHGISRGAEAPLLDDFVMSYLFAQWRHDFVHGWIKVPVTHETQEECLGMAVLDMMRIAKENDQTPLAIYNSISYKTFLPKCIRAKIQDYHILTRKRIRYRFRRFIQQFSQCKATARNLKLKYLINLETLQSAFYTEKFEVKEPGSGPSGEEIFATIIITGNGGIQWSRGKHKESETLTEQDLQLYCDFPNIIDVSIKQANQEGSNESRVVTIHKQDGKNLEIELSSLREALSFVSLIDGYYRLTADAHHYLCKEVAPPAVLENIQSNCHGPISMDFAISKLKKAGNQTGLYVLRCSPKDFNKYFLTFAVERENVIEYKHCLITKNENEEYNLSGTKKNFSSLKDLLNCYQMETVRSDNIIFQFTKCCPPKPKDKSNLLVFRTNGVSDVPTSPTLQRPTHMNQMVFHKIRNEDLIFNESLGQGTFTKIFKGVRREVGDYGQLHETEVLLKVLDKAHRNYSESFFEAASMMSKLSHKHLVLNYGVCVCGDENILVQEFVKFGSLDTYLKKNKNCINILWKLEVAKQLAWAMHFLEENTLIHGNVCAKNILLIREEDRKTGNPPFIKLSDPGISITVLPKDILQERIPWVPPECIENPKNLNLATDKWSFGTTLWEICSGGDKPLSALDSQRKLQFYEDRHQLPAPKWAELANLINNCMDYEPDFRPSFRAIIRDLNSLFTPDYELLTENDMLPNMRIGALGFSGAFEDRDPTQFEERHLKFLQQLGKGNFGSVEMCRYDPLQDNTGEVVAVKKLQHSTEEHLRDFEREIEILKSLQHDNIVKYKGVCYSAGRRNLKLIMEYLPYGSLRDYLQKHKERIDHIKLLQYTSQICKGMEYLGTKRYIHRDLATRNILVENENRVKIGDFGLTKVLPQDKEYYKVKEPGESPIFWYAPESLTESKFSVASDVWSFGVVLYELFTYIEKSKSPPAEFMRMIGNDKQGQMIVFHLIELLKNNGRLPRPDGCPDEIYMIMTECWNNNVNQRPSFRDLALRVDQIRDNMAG
# Outline: as §1
IC50 (JAK3),IC50 (TYK2),"Selectivity ratio over JAK2, JAK1 (JAK1)",IC50 (JAK1),IC50 (JAK2),"Selectivity ratio over JAK2, Tyk2 (TYK2)","Selectivity ratio over JAK2, JAK3 (JAK3)",SMILES
100 to 1000 nM,< 100 nM,JAK1 = 56,< 100 nM,1000 to 10000 nM,,,"Cc1cnc(Nc2cnn(CC(F)F)c2)nc1NC[C@@H]1C[C@H](F)CN1CCC#N [Example 121, 3-((2S,4S)-2-(((2-((1-(2,2-difluoroethyl)-1H-pyrazol-4-yl)amino)-5-methylpyrimidin-4-yl)amino)methyl)-4-fluoropyrrolidin-1-yl)propanenitrile]"
1000 to 10000 nM,< 100 nM,JAK1 = 55,< 100 nM,1000 to 10000 nM,,,"Cc1cnc(Nc2cnn(C)c2)nc1NC[C@H]1CCN(C(=O)CCC#N)C1 [Example 111, (R)-4-(3-(((5-methyl-2-((1-methyl-1H-pyrazol-4-yl)amino)pyrimidin-4-yl)amino)methyl)pyrrolidin-1-yl)-4-oxobutanenitrile]"
> 10000 nM,1000 to 10000 nM,,1000 to 10000 nM,> 10000 nM,,,"Cn1cc(Nc2ncc(F)c(NC[C@@H]3CCCN3)n2)cn1 [Example 71, (S)-5-fluoro-N^2-(1-methyl-1H-pyrazol-4-yl)-N^4-(pyrrolidin-2-ylmethyl)pyrimidine-2,4-diamine Hydrochloride]"
1000 to 10000 nM,1000 to 10000 nM,,100 to 1000 nM,> 10000 nM,,,"C=CC(=O)N1CCCC[C@H]1CNc1nc(Nc2cnn(C)c2)ncc1Cl [Example 34, (S)-1-(2-(((5-chloro-2-((1-methyl-1H-pyrazol-4-yl)amino)pyrimidin-4-yl)amino)methyl)piperidin-1-yl)prop-2-en-1-one]"
100 to 1000 nM,< 100 nM,,100 to 1000 nM,1000 to 10000 nM,Tyk2 = 53,,"Cn1cc(Nc2ncc(F)c(NC[C@H]3CCCN3CCC#N)n2)cn1 [Example 112, (R)-3-(2-(((5-fluoro-2-((1-methyl-1H-pyrazol-4-yl)amino)pyrimidin-4-yl)amino)methyl)pyrrolidin-1-yl)propanenitrile]"
< 100 nM,100 to 1000 nM,JAK1 = 15,100 to 1000 nM,1000 to 10000 nM,,,"Cn1cc(Nc2ncc(Cl)c(NC[C@H]3CCN(CCC#N)C3)n2)cn1 [Example 57, (R)-3-(3-((5-chloro-2-(1-methyl-1H-pyrazol-4-ylamino)pyrimidin-4-ylamino)methyl)pyrrolidin-1-yl)propanenitrile]"
100 to 1000 nM,> 10000 nM,JAK1 = 49,100 to 1000 nM,> 10000 nM,,,"CCN1CCC[C@H]1CNc1nc(Nc2cnn(C)c2)ncc1Cl [Example 61, (S)-5-chloro-N4-((1-ethylpyrrolidin-2-yl)methyl)-N2-(1-methyl-1H-pyrazol-4-yl)pyrimidine-2,4-diamine]"
100 to 1000 nM,100 to 1000 nM,JAK1 = 93,< 100 nM,1000 to 10000 nM,,,"CN(C)CC(=O)N1CCC[C@@H]1CNc1nc(Nc2cnn(C)c2)ncc1Cl [Example 53, (R)-1-(2-((5-chloro-2-(1-methyl-1H-pyrazol-4-ylamino)pyrimidin-4-ylamino)methyl)pyrrolidin-1-yl)-2-(dimethylamino)ethanone]"
100 to 1000 nM,< 100 nM,,100 to 1000 nM,100 to 1000 nM,Tyk2 = 4,,"C=CC(=O)N1CCCC[C@@H]1CNc1nc(Nc2cnn(CCO)c2)ncc1Cl [Example 42, (R)-1-(2-(((5-chloro-2-((1-(2-hydroxyethyl)-1H-pyrazol-4-yl)amino)pyrimidin-4-yl)amino)methyl)piperidin-1-yl)prop-2-en-1-one]"
< 100 nM,< 100 nM,,100 to 1000 nM,1000 to 10000 nM,Tyk2 = 14,,"C=CS(=O)(=O)N1CCC[C@H]1CNc1nc(Nc2cnn(C)c2)ncc1Cl [Example 14, (S)-5-chloro-N^2-(1-methyl-1H-pyrazol-4-yl)-N^4-((1-(vinylsulfonyl)pyrrolidin-2-yl)methyl)pyrimidine-2,4-diamine]"
100 to 1000 nM,1000 to 10000 nM,JAK1 = 20,1000 to 10000 nM,> 10000 nM,,,"CC(=O)N1CCCC[C@H]1CNc1nc(Nc2cnn(CCO)c2)ncc1Cl [Example 33, (S)-1-(2-(((5-chloro-2-((1-(2-hydroxyethyl)-1H-pyrazol-4-yl)amino)pyrimidin-4-yl)amino)methyl)piperidin-1-yl)ethanone]"
< 100 nM,< 100 nM,JAK1 = 28,< 100 nM,100 to 1000 nM,,,"Cc1cnc(Nc2cnn(C)c2)nc1NC[C@@H]1CCCN1S(C)(=O)=O [Example 77, (S)-5-methyl-N^2-(1-methyl-1H-pyrazol-4-yl)-N^4-((1-(methylsulfonyl)pyrrolidin-2-yl)methyl)pyrimidine-2,4-diamine]"
100 to 1000 nM,100 to 1000 nM,,100 to 1000 nM,100 to 1000 nM,Tyk2 = 6,,"C=CC(=O)N1CCCC[C@@H]1CNc1nc(Nc2cnn(C)c2)ncc1Cl [Example 41, (R)-1-(2-(((5-chloro-2-((1-methyl-1H-pyrazol-4-yl)amino)pyrimidin-4-yl)amino)methyl)piperidin-1-yl)prop-2-en-1-one]"
100 to 1000 nM,< 100 nM,JAK1 = 69,< 100 nM,100 to 1000 nM,,,"Cc1cnc(Nc2cnn(CC(F)F)c2)nc1NC[C@H]1CCCN1C(=O)CC#N [Example 118, (R)-3-(2-(((2-((1-(2,2-difluoroethyl)-1H-pyrazol-4-yl)amino)-5-methylpyrimidin-4-yl)amino)methyl)pyrrolidin-1-yl)-3-oxopropanenitrile]"
100 to 1000 nM,100 to 1000 nM,,100 to 1000 nM,1000 to 10000 nM,,JAK3 = 52,"Cn1cc(Nc2ncc(Cl)c(NC[C@H]3CCCN3CCO)n2)cn1 [Example 48, (R)-2-(2-((5-chloro-2-(1-methyl-1H-pyrazol-4-ylamino)pyrimidin-4-ylamino)methyl)pyrrolidin-1-yl)ethanol]"
< 100 nM,< 100 nM,,< 100 nM,100 to 1000 nM,,JAK3 = 33,"Cn1cc(Nc2ncc(Cl)c(NC[C@H]3CCCN(C(=O)CC#N)C3)n2)cn1 [Example 137, (R)-3-(3-(((5-chloro-2-((1-methyl-1H-pyrazol-4-yl)amino)pyrimidin-4-yl)amino)methyl)piperidin-1-yl)-3-oxopropanenitrile]"
< 100 nM,100 to 1000 nM,,100 to 1000 nM,100 to 1000 nM,,JAK3 = 20,"CS(=O)(=O)N1CCCC[C@@H]1CNc1nc(Nc2cnn(CCO)c2)ncc1Cl [Example 44, (R)-2-(4-((5-chloro-4-(((1-(methylsulfonyl)piperidin-2-yl)methyl)amino)pyrimidin-2-yl)amino)-1H-pyrazol-1-yl)ethanol]"
< 100 nM,< 100 nM,,< 100 nM,100 to 1000 nM,Tyk2 = 42,,"Cn1cc(Nc2ncc(Cl)c(NC[C@H]3CCCN3CCC#N)n2)cn1 [Example 49, (R)-3-(2-((5-chloro-2-(1-methyl-1H-pyrazol-4-ylamino)pyrimidin-4-ylamino)methyl)pyrrolidin-1-yl)propanenitrile]"
